Common to all, as to assay type: in vivo
One experiment relates to Spodoptera littoralis. The experiment in a line: Spodoptera littoralis (Egyptian cotton leaf worm) leaf disc test. Particulars: foliar, 72 h, read-out: control (at least one of mortality, anti-feedant effect, growth inhibition); for percent control (mortality, anti-feedant effect or growth inhibition) at 200 ppm: application rate 200 ppm, cotton leaf discs sprayed, L1 larvae, 3 days after infestation. As for the experimental part:
Spodoptera littoralis (Egyptian Cotton Leaf Worm)
Cotton leaf discs were placed on agar in 24-well microtiter plates and sprayed with aqueous test solutions prepared from 10′000 ppm DMSO stock solutions. After drying the leaf discs were infested with five L1 larvae. The samples were assessed for mortality, anti-feedant effect, and growth inhibition in comparison to untreated samples 3 days after infestation. Control of Spodoptera littoralis by a test sample is when at least one of mortality, anti-feedant effect, and growth inhibition is higher than the untreated sample.

For a further experiment, the system named is Thrips tabaci. Put plainly: Thrips tabaci (onion thrips) leaf disc test. Particulars: foliar, 144 h, application rate 200 ppm, sunflower leaf discs sprayed, mixed ages, 6 days after infestation, read-out: control (mortality). As for the experimental part:
Thrips tabaci (Onion Thrips):
Sunflower leaf discs were placed on agar in 24-well microtiter plates and sprayed with aqueous test solutions prepared from 10′000 ppm DMSO stock solutions. After drying the leaf discs were infested with a thrips population of mixed ages. The samples were assessed for mortality 6 days after infestation.

The subject of another experiment is Plutella xylostella. The experiment in a line: Plutella xylostella (diamond back moth) artificial diet test. Particulars: 120 h, read-out: control (mortality and growth inhibition). As for the experimental part: Plutella xylostella (Diamond Back Moth):
24-well microtiter plates with artificial diet were treated with aqueous test solutions prepared from 10′000 ppm DMSO stock solutions by pipetting. After drying, the plates were infested with L2 larvae (10 to 15 per well). The samples were assessed for mortality and growth inhibition in comparison to untreated samples 5 days after infestation.

Another experiment concerns Diabrotica Balteata. The experiment in a line: Diabrotica balteata (corn root worm) maize sprout test. As to conditions: 96 h, read-out: control (mortality and growth inhibition). The method, then: Diabrotica Balteata, (Corn Root Worm)
Maize sprouts, placed on an agar layer in 24-well microtiter plates were treated with aqueous test solutions prepared from 10′000 ppm DMSO stock solutions by spraying. After drying, the plates were infested with L2 larvae (6 to 10 per well). The samples were assessed for mortality and growth inhibition in comparison to untreated samples 4 days after infestation.

Where [1] appears, read: application rate 200 ppm, artificial diet, L2 larvae, 5 days after infestation.
[2] abbreviates: application rate 200 ppm, maize sprouts sprayed, L2 larvae, 4 days after infestation.

Where two headings read alike, the source gives them in different places.

Consider `Cn1nc(OS(=O)(=O)F)c(C(F)(F)F)c1-n1cc(-c2ccc(Cl)c(C(=O)NC3CC3)c2)cn1` [Compound 4, 5-[4-[4-chloro-3-(cyclopropylcarbamoyl)phenyl]pyrazol-1-yl]-3-fluorosulfonyloxy-1-methyl-4-(trifluoromethyl)pyrazole], for which the mortality at 200 ppm with Spodoptera littoralis is no less than 80%.

Turning to `CN(C(=O)c1cc(-c2cnn(-c3c(C(F)(F)F)c(OS(=O)(=O)C(F)(F)C(F)(F)F)nn3C)c2)ccc1Cl)C1(C#N)CC1` [Compound 7, [5-[4-[4-chloro-3-[(1-cyanocyclopropyl)-methyl-carbamoyl]phenyl]pyrazol-1-yl]-1-methyl-4-(trifluoromethyl)pyrazol-3-yl] 1,1,2,2,2-pentafluoroethanesulfonate], the mortality at 200 ppm with Thrips tabaci, with Plutella xylostella (setting [1]) and in the experiment on Diabrotica Balteata (setting [2]) was no less than 80% throughout. Moreover, the percent control (mortality, anti-feedant effect or growth inhibition) at 200 ppm in the experiment on Spodoptera littoralis was no less than 80%.

As to `CN(C(=O)c1cc(-c2cnn(-c3c(C(F)(F)F)c(OS(=O)(=O)C(F)(F)C(F)(F)C(F)(F)C(F)(F)F)nn3C)c2)ccc1Cl)C1CC1` [Compound 15, [5-[4-[4-chloro-3-[cyclopropyl(methyl)carbamoyl]phenyl]pyrazol-1-yl]-1-methyl-4-(trifluoromethyl)pyrazol-3-yl] 1,1,2,2,3,3,4,4,4-nonafluorobutane-1-sulfonate], the mortality at 200 ppm in the experiment with Plutella xylostella and with Diabrotica Balteata was no less than 80% in each case. Also, in the experiment on Spodoptera littoralis, the percent control (mortality, anti-feedant effect or growth inhibition) at 200 ppm is no less than 80%.

Take `CN(C(=O)c1cc(-c2cnn(-c3c(C(F)(F)F)c(OS(=O)(=O)C(F)(F)C(F)(F)F)nn3C)c2)ccc1Cl)C1CC1` [Compound 16, [5-[4-[4-chloro-3-[cyclopropyl(methyl)carbamoyl]phenyl]pyrazol-1-yl]-1-methyl-4-(trifluoromethyl)pyrazol-3-yl] 1,1,2,2,2-pentafluoroethanesulfonate]: the mortality at 200 ppm in the experiment with Plutella xylostella (setting [1]) and in the experiment on Diabrotica Balteata (setting [2]) was no less than 80% in each case. In the experiment with Spodoptera littoralis, the percent control (mortality, anti-feedant effect or growth inhibition) at 200 ppm is no less than 80%.

With `Cn1nc(OS(=O)(=O)C(F)(F)C(F)(F)C(F)(F)C(F)(F)F)c(C(F)(F)F)c1-n1cc(-c2cnc(Cl)c(C(=O)NC3(C#N)CC3)c2)cn1` [Compound 30, [5-[4-[6-chloro-5-[(1-cyanocyclopropyl)carbamoyl]-3-pyridyl]pyrazol-1-yl]-1-methyl-4-(trifluoromethyl)pyrazol-3-yl] 1,1,2,2,3,3,4,4,4-nonafluorobutane-1-sulfonate], the mortality at 200 ppm in the experiment on Plutella xylostella and with Diabrotica Balteata was no less than 80% in each case. The percent control (mortality, anti-feedant effect or growth inhibition) at 200 ppm in the experiment on Spodoptera littoralis was no less than 80%.

Turning to `Cn1nc(OS(=O)(=O)C(F)(F)C(F)(F)C(F)(F)C(F)(F)F)c(C(F)(F)F)c1-c1cc(-c2ccc(Cl)c(C(=O)NC3CC3)c2)on1` [Compound 39, [5-[5-[4-chloro-3-(cyclopropylcarbamoyl)phenyl]isoxazol-3-yl]-1-methyl-4-(trifluoromethyl)pyrazol-3-yl] 1,1,2,2,3,3,4,4,4-nonafluorobutane-1-sulfonate], the mortality at 200 ppm in the experiment on Plutella xylostella and with Diabrotica Balteata was no less than 80% each time.

In the case of `CCN(C(=O)c1cc(-c2cc(-c3c(C(F)(F)F)c(OS(=O)(=O)C(F)(F)C(F)(F)C(F)(F)C(F)(F)F)nn3C)no2)ccc1Cl)C1(C#N)CC1` [Compound 44, [5-[5-[4-chloro-3-[(1-cyanocyclopropyl)-ethyl-carbamoyl]phenyl]isoxazol-3-yl]-1-methyl-4-(trifluoromethyl)pyrazol-3-yl] 1,1,2,2,3,3,4,4,4-nonafluorobutane-1-sulfonate], in the experiment with Plutella xylostella, the mortality at 200 ppm was no less than 80%. For the same molecule, the percent control (mortality, anti-feedant effect or growth inhibition) at 200 ppm in the experiment on Spodoptera littoralis is no less than 80%.

These data come from patent US11071300B2, “Pesticidally active pyrazole derivatives” (SYNGENTA PARTICIPATIONS AG, priority 2017, dated 2021).
